Tests used:
[1] = test system: A2ECs treated with IL-17A; experiment: A2ECs exposed to IL-17A in vitro; assay type: cell-based, mouse; conditions: for IL-17A-induced p53 and PAI-1 expression, and apoptosis: A2ECs from WT mice, IL-17A 100 ng/ml
Method: FIGS. 49A-49B show the role of IL-17A in PTS-induced p53, PAI-1 expression, and apoptosis in A2ECs. (A) IL-17A^−/− mice resist PTS-induced p53 expression and apoptosis in A2ECs. Mice were kept in ambient AIR or exposed to 20 weeks of PTS. A2ECs isolated from WT and IL-17A^−/− mice in AIR or exposed to PTS were analyzed for acetylated/total p53, Sirt1 and activated caspase-3 to assess apoptosis by Western blotting. (B) CSP inhibits IL-17A-induced p53 and PAI-1 expression and apoptosis in A2ECs in vitro. A2ECs isolated from WT mice were treated with PBS or IL-17A (100 ng/ml) in the presence or absence of CSP or control peptide, CP for 24 h in culture dishes. A2EC lysates were immunoblotted for p53, PAI-1, Cl./total caspase-3 and β-actin. WT mice exposed to IL-17A (FIG. 48D) and PTS (FIG. 46A) induce p53 acetylation and Cav1 expression, while inhibiting Sirt1 in A2ECs.
FIGS. 58A-58B show a 7-amino acid fragment of CSP, CSP7 Inhibits IL-17A-induced A2EC apoptosis. (A) Fragments of CSP were synthesized as shown. (B) A2ECs were treated with CSP or its fragments, or CP, 2 h after exposure of cells to IL-17A. A2EC lysates were immunoblotted for acetylated/total p53 and active/total caspase-3 24 h after IL-17A exposure. β-actin levels were evaluated to assess equal loading.
Increased p53 and apoptosis in A2ECs of mice exposed to PTS or IL-17A provided evidence that PTS acts by increasing IL-17A. To confirm that increased IL-17A contributes to the induction of p53 and PAI-1 expression, and apoptosis in A2ECs during PTS-induced lung injury, IL-17A-deficient mice were exposed to 20 weeks of PTS and control mice were kept in ambient air. A2ECs were tested for p53^AC, p53 and Sirt1 expression, and apoptosis. The responses were compared with changes in A2ECs isolated from WT mice exposed to 20 weeks of PTS or AIR. There was marked induction of p53^AC and p53 levels, and apoptosis with parallel suppression of Sirt1 expression in WT mice exposed to 20 weeks of PTS. […] To confirm mitigation of PTS induced lung injury by CSP or CSP7 involves suppression of IL-17A-induced p53, PAI-1 and apoptosis, A2ECs isolated from WT mice were next treated with IL-17A (100 ng/ml) with or without CSP, CSP7 or CP. Control cells were treated with vehicle (PBS) alone. The A2EC lysates were tested for p53 and p53-mediated downstream induction of PAI-1, and apoptosis. […] Further, induction of miR-34a increased p53 and apoptosis in A2ECs without exposure to tobacco smoke, while inhibition of miR-34a using miR-34a antisense (miR-34a-AS) reduced cigarette smoke induced p53 expression and apoptosis. Results of both in vitro and in vivo experiments support an intricate link between miR-34a, p53^AC, p53 and p53-mediated induction of PAI-1 expression, and A2EC apoptosis during PTS lung injury.

[2] = test system: A2Cs of WT mice with 8X-BLM-induced PF; experiment: Repeated bleomycin (8X-BLM) induced PF in WT mice, A2C telomere analyses; assay type: in vivo, mouse
Method: To analyze the effect of BLM, mice were exposed to BLM (40 μg/20 g body weight) once per two week for 16 weeks. Control mice were exposed to normal saline. At 14th week the peptide treatment at a dosage of 30 μg/20 g body weight was initiated and continued on a daily basis for the next 14 days. At the end of the experiment, the mice were euthanized and used for the experiments.
To evaluate the effect of CSP7 against chronic BLM-induced PF, the mice were exposed to BLM (40 μg/20 g body weight) once every two weeks for 16 weeks as described elsewhere. (Tiwari et al, 2016). Control mice were exposed to normal saline. Fourteen weeks later the CSP7 at a dosage of 1.5 mg/kg body weight was administered by IP injection and continued daily basis for the next two weeks as described elsewhere. (Tiwari et al, 2016; Shetty et al, 2008b). At the end of the experiment, the mice were euthanized and lung tissues and isolated A2Cs from the extracted lung tissues were used for further analysis.
Detection of telomerase activity. Telomerase activity was detected using a PCR-based telomeric repeat amplification protocol (TRAP) method using the TRAPeze Telomerase Detection Kit (Intergen, Purchase, NY, USA). Briefly, the cells were lysed in CHAPS lysis buffer and quantified by BCA method, and equal quantity of the protein samples was combined with the reaction mix in RNase-free PCR tubes. The PCR amplification was then performed following instruction of the manufacturer. The final PCR product was loaded onto a 12.5% non-denaturing polyacrylamide gel and subjected to electrophoresis. The polyacrylamide gel was stained with ethidium bromide and documented using a gel-doc unit (Bio-Rad Laboratories). The relative quantities of telomerase activity for each sample were calculated according to the instructions provided in the kit.
Measurement of terminal restriction fragment (telomeric) length. For the determination of telomeric length, the TeloTTAGGG Telomere Length Assay Kit (Roche Diagnostics GmbH) was used. Briefly, genomic DNA was isolated and digested with Hinf1/Rsa. The digested DNA fragments were then separated by electrophoresis on agarose gel followed by Southern blot transfer. The membrane was then hybridized with a telomere specific digoxigenin (DIG)-labelled probe, incubated with anti-DIG alkaline phosphatase, and documented with chemiluminescence detection in gel-doc unit (Bio-Rad Laboratories). Telomeric length was identified by comparing with the pre-labelled molecular weight marker. The relative telomere length was calculated according to the protocol provided. In addition, relative telomere length was analyzed by qPCR analysis of the genomic DNA. (Cawthon, Nucleic Acids Res 2002, 30:e47-e47; Alder et al, Proc Natl Acad Sci USA 2015, 112:5099-5104.) The 36B4 gene was served as the control.

DGIWKASFTTFTVTKYWFYR (listed as Homo sapiens) [CSP, 20 residue caveolin-1 scaffolding domain peptide]
IL-17A-induced p53 and PAI-1 expression, and apoptosis [1]: inhibited IL-17A-induced p53 and PAI-1 expression, and apoptosis

FTTFTVT (listed as Homo sapiens) [CSP7, heptapeptide fragment of the caveolin-1 scaffolding domain peptide CSP]
TERT enzyme activity ([2]; 8X-BLM PF): significantly reversed | TRF1, TRF2, PNUTS and TERT expression in A2Cs ([2]; 8X-BLM PF): reversed | p53, PAI-1, SIAH1/2, caspase-3 activation, β-galactosidase in A2Cs ([2]; 8X-BLM PF): suppression | IHC of lung sections for TRF2, p53, PAI-1, TRF1 ([2]; 8X-BLM PF (FIG. 25E)): restoration of TRF2 expression with reduction in p53, PAI-1 and TRF1 | telomere length of A2Cs (qPCR) ([2]; 8X-BLM PF, treated two weeks): improved | p53 and caspase-3 activation ([1]; A2ECs + IL-17A, CSP deletion fragments): inhibited p53 and caspase-3 activation | IL-17A-induced p53 and PAI-1 expression, and apoptosis [1]: inhibited IL-17A-induced p53 and PAI-1 expression, and apoptosis

WGIDKAFFTTSTVTYKWFRY [CP, scrambled control peptide with the same amino acid composition as CSP, reference compound]
TERT enzyme activity ([2]; 8X-BLM PF): still displayed shortened telomere | TRF1, TRF2, PNUTS and TERT expression in A2Cs ([2]; 8X-BLM PF): still harbor A2Cs with shortened telomere

From patent US20240082342A1, “PEPTIDE THERAPEUTICS FOR INCREASING LUNG CELL VIABILITY” (BOARD OF REGENTS, THE UNIVERSITY OF TEXAS SYSTEM, priority 2018, published 2024)
